Results from patent US6486127B1, “Compositions comprising D-chiro inositol and lipid lowering compounds and methods of treatment thereof” (Insmed, Incorporated, priority 2001, dated 2002).
Entries after “also recorded” stand apart in the source; their conditions may differ.

Key:
[1] = Same clinical trial: insulin during meal tolerance test (MTT); type: in vivo, human
Description: Changes in area-under-the-curve (AUC) and 120-minute insulin and glucose levels during the mcal tolerance test (MTT).
(§1) This multicenter, double-blind, parallel-group, placebo-controlled, randomized, fixed-dose clinical study was designed to evaluate 1200 mg/day D-chiro-inositol versus placebo in 270 obese patients with type 2 diabetes mellitus who had been receiving sulfonylureas for at least 3 months without reaching their target or with suboptimal response.
(§2) The study involved 5 scheduled visits. The first visit was the screening visit, followed by a baseline visit up to 2 weeks later. Patients were randomized at the baseline visit, half to 1200 mg/day D-chiro-inositol and half to placebo, and subsequently began 13 weeks of treatment with blinded study medication. There were 3 visits for safety and efficacy assessments, at 4, 8, and 13 weeks after beginning treatment. The 13-week visit was the final visit. Patients arrived at the investigational site in a fasted state for all visits. Assessments were to be done at the same time of day at each visit by the same responsible personnel. Medication was taken once a day at the same time of morning, except on visit days, on which the dose was delayed until just after fasting blood samples had been collected.
(§3) Biomarkers: A meal tolerance test (MTT) was performed at baseline (Visit 2) and the final visit (Visit 5). In addition, blood was drawn at every visit for assessment of fasting glucose and insulin, HbA1c, C-peptide, fructosamine, FFA, triglycerides, total cholesterol, HDL, VLDL, LDL, and Apo-B levels.
(§4) Secondary Efficacy Variable (s) and Analyses. Since all secondary efficacy parameters were continuous, they were analyzed in the same manner as described above for the primary efficacy parameter, with treatment group and baseline values for the relevant parameter used as predictors. These secondary efficacy parameters included:
AUC (and 120-minute) insulin and glucose levels during the MTT;

[2] = streptozotocin-treated rats, obese Zucker rats, or normal rats given a glucose load; cited from earlier work
[3] = Subgroup analysis of the clinical trial: lipid lowering drug / D-chiro-inositol effects on LDL cholesterol; type: in vivo, human; settings: type 2 diabetic patients on sulfonylurea, with or without lipid lowering medication
Description: Due to the observation of lipid lowering effects seen in the DCI group, the clinical trial described in EXAMPLE 1 was further analyzed for synergistic interactions between D-chiro-inositol and lipid lowering medications. Certain patients within the trial were treated according to standard of care with HMC-CoA inhibitors (LIPITOR®, LESCOL®, ZOCOR®, MEVACOR®, PRAVACHOL®), gemfibrozil, or a combination of HMC-CoA and gemfibrozil. No inclusion or exclusion criteria were established for the efficacy of the lipid lowering drug efficacy in the patient population. As stated supra, these patients were being sub optimally treated with a sulfonylurea prior to beginning the clinical trial. The patients could not change their lipid lowering dose and/or regimen during the length of the study.

[4] = Randomized placebo-controlled clinical trial of D-chiro-inositol with sulfonylureas: glycemic markers (HbA1c, fructosamine, fasting glucose); type: in vivo, human; settings: for Difference in HbA1c change between D-chiro-inositol and placebo: baseline to endpoint
Description: The objective of this study was to assess the efficacy and safety of D-chiro-inositol when administered as a single oral dose of 1200 mg/day compared to placebo, each in combination with sulfonylureas, for 3 months. Patients were required to have been on sulfonylureas for 3 months prior to study entry without reaching their target dose or with a suboptimal response.
as §1, §2
Patients receiving D-chiro-inositol received four 300 mg capsules once daily for a total daily dose of 1200 mg; placebo patients took 4 placebo capsules once daily. Doses were taken orally, generally in the mornings. Patients were instructed to take their dose in the morning at the same time each day, except on visit days. On visit days, dosing was to be done at the clinic. No instructions were given regarding when to take medication in relation to meals on non-visit days.
as §3
Primary Efficacy Variable(s) and Analyses. The primary analysis was based on the change from baseline to endpoint in HbA1c level using the modified ITT and evaluable study populations. The analysis was done using an analysis of covariance (ANCOVA) model with treatment group and the baseline HbA1c value as predictors.
Secondary Efficacy Variable (s) and Analyses. Since all secondary efficacy parameters were continuous, they were analyzed in the same manner as described above for the primary efficacy parameter, with treatment group and baseline values for the relevant parameter used as predictors.

[5] = Same clinical trial: fasting serum lipids (cholesterol, LDL, Apo-B, FFA); type: in vivo, human
Description: Changes in levels of triglycerides, total cholesterol, high-density lipoproteins (HDL), low-density lipoproteins (LDL), very-low-density lipoproteins (VLDL), apolipoprotein B (Apo-B), and free fatty acids (FFA).
as §1, §2, §3, §4
Total cholesterol, triglycerides, HDL, LDL, VLDL, Apo-B, and FFA levels;

[6] = oral or intravenous route; cited from earlier work
[7] = MTT, evaluable patients with FPG ≦ 180 mg/dL
[8] = MTT, evaluable patients, 1200 mg/day plus sulfonylurea
[9] = evaluable patients with FPG ≦ 180 mg/dL
[10] = patients with FPG ≦ 180 mg/dL, 1200 mg/day oral plus sulfonylurea
[11] = evaluable patients, 1200 mg/day plus sulfonylurea

OC1C(O)C(O)C(O)C(O)C1O [D-chiro-inositol]
Change in insulin AUC from baseline to endpoint, median of individual subjects (FIG. 2) ([1]; DCI+SU group): slightly increased the insulin AUC | 120-min. insulin, mean change [1, 7]: 5.09 μU/mL | AUC insulin, mean change [1, 7]: 1070.8 μU/mL·hr | 120-min. insulin, mean change at endpoint [1, 8]: 3.50 μU/mL | AUC insulin, mean change at endpoint [1, 8]: 484.4 μU/mL·hr | Insulin response to meal tolerance test over the treatment period (FIGS. 1A, 1B) ([1]; subjects with fasting blood glucose ≦180 mg/dl, DCI+SU, 13 weeks, listed as DCI): maintained this response after the 13 week course of treatment; also recorded: maintains a constant insulin response over the testing period | Glycemic control [2]: significantly improved glyceimic control | Effect on LDL cholesterol (FIG. 3) [3]: significantly reduced the increase of LDL cholesterol | Fasting glucose, mean change [4, 9]: 12.67 mg/dL | Fructosamine, mean change [4, 9]: -15.22 µmol/L | Decrease in mean HbA1c level from baseline to endpoint ([4]; evaluable patients with FPG≦180 mg/dL, stated as a decrease): 0.53% | Mean change in HbA1c from baseline to endpoint, mean (SD) ([4]; evaluable patients, LOCF at endpoint (13 weeks), 1200 mg/day oral plus sulfonylurea): −0.16 (1.03) % | Difference in HbA1c change between D-chiro-inositol and placebo ([4]; evaluable population): 0.36% | Decrease in mean fructosamine levels ([4]; evaluable population, p=0.159 vs placebo): 5.32 µmol/L | Decrease in mean HbA1c levels from baseline to endpoint ([4]; evaluable population, stated as a decrease): 0.16% | Mean change in HbA1c from baseline to endpoint, mean (SD) ([4]; patients with FPG ≦ 180 mg/dL, LOCF at endpoint, 1200 mg/day oral plus sulfonylurea): −0.53 (1.03) % | Mean change in HbA1c from baseline to Week 4, mean (SD) [4, 10]: −0.47 (0.68) % | Mean change in HbA1c from baseline to Week 8, mean (SD) [4, 10]: −0.57 (0.82) % | Difference in HbA1c change between D-chiro-inositol and placebo ([4]; patients with FPG≦180 mg/dL): 0.80% | Apo-B, mean change [5, 9]: -4.00 mg/dL | Cholesterol, mean change [5, 9]: -5.31 mg/dL | LDL, mean change [5, 9]: -4.14 mg/dL | Decrease in LDL ([5]; evaluable patients with FPG>180 mg/dL, p=0.036 vs placebo): 2.02 mg/dL | Apo-B, mean change at endpoint [5, 11]: -1.26 mg/dL | Cholesterol, mean change at endpoint [5, 11]: -2.74 mg/dL | FFA, mean change at endpoint [5, 11]: −0.07 mEq/L | LDL, mean change at endpoint [5, 11]: -2.95 mg/dL | Disappearance rate of plasma glucose and insulin [6]: significantly increased the disappearance rate of both plasma glucose and insulin
